Nine molecules from PubChem BioAssay (NCI) can be followed below.

Common to all, as to assay: DTP human tumour cell line panel, 48 h
In assay [1] the test system is SNB-75 CNS.
The test system of assay [2] is MCF7 breast.
The test system of assay [3] is HT29 colon.
The subject of assay [4] is MDA-MB-435.
The test system of assay [5] is SW-620 colon.
Assay [6] concerns MOLT-4 leukemia.
For assay [7], the system named is ACHN renal.
The subject of assay [8] is T-47D breast.
Assay [9] concerns TK-10 renal.
The subject of assay [10] is K-562 leukemia.
Assay [11] deals with BT-549 breast.
Assay [12] has as its system HCT-15 colon.
Assay [13] concerns OVCAR-8 ovarian.
For assay [14], the system named is NCI-H522 lung.
For assay [15], the system named is SK-OV-3 ovarian.
Assay [16] has as its system SN12C renal.

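The compound was tested at five concentrations on cells cultured in 96-well plates, with a 48-hour exposure period. At the GI50, growth is halved. Definition used: TGI = concentration required for complete inhibition of growth.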 Some results are limits rather than exact numbers.

In general, TGI refers to the concentration giving total growth inhibition. As for `COc1cc(/C=C2\N=C(c3ccccc3)N(c3nc4c(OC)ccc(OC)c4s3)C2=O)ccc1O`, the TGI is 93.2 µM in [1]; 33.2 µM in assay [2]; over 100 µM in [3]; 50.7 µM in assay [4]; over 100 µM in assay [5]; 39.5 µM in assay [6]. Also, the TGI in assay [7] was over 100 µM; in assay [8] it was 26.4 µM; in assay [9], over 100 µM; in assay [10] it was 42.4 µM; in assay [11], over 100 µM; in [12] it was over 100 µM. Further, the total growth inhibition concentration (TGI) in assay [13], in [14], in assay [15] and in [16] was over 100 µM throughout.

Turning to `CN(C)CCCN1c2ccccc2Sc2cnccc21`, the TGI in assay [1], in assay [2], in assay [3], in assay [4], in assay [5] and in assay [6] was over 100 µM in each case. Also, the TGI in assay [7], in assay [8], in assay [9], in assay [10], in assay [11] and in [12] was over 100 µM each time. Besides, the TGI in assay [13], in assay [14], in assay [15] and in [16] was over 100 µM throughout.

With `O=C1C(Cl)C(c2cccc(Cl)c2)N1c1ccc(-n2c(=S)[nH]c3ccccc3c2=O)cc1` (stereo not drawn), the TGI was 37.8 µM in assay [2]; 43.3 µM in assay [3]; 36.6 µM in assay [4]; over 100 µM in assay [5]; 37.6 µM in [6]; 48.8 µM in assay [7]. Moreover, the total growth inhibition concentration (TGI) in assay [8] is over 100 µM; in assay [9] it was 80.1 µM; in assay [10], 45.3 µM; in assay [11], over 100 µM; in assay [12], 14.4 µM; in assay [13], over 100 µM. Further, the TGI in [14] came out at 31.3 µM; in [15] it was 72.5 µM; in assay [16], 31.9 µM.

As to `Cc1ccc2c(c1)C1(C)OC(C=CC1=O)O2` (stereo not drawn), the TGI stood at 4.35 µM in [1]; 6.09 µM in assay [2]; 0.684 µM in [3]; 0.317 µM in assay [4]; 1.05 µM in assay [5]; 0.862 µM in assay [6]. Moreover, the total growth inhibition concentration (TGI) in assay [7] amounted to 1.73 µM; in [8] it was 1.65 µM; in [9], 5.5 µM; in assay [10] it was 0.902 µM; in assay [11] it was 1.57 µM; in assay [12], 0.772 µM. Besides, the total growth inhibition concentration (TGI) in assay [13] came to 0.803 µM; in assay [14], 0.239 µM; in assay [15] it was 12 µM; in assay [16], 0.862 µM.

In the case of `CCOP(=O)(CN1CCNCCNCC1)OCC`, the total growth inhibition concentration (TGI) in assay [1], in assay [2], in assay [3], in [4], in assay [5] and in assay [6] was over 100 µM in each case. In addition, the TGI in [7], in assay [8], in assay [9], in [10], in assay [11] and in assay [12] was over 100 µM in each case. The total growth inhibition concentration (TGI) in assay [13], in [14], in assay [15] and in [16] was over 100 µM in each case.

As for `O=c1c2cc(S(=O)(=O)O)ccc2nc(COc2ccc(Oc3ccc(Cl)cc3Cl)cc2)n1-c1ccc(Cl)cc1Oc1c(Cl)cccc1Cl`, the TGI in assay [2] was 45.6 µM; in assay [3], 39.9 µM; in assay [4], 66.5 µM; in assay [5], 79.6 µM; in assay [6] it was over 100 µM; in assay [7], 68.5 µM. In addition, the TGI in assay [8] is over 100 µM; in assay [9], over 100 µM; in assay [10], over 100 µM; in assay [11], 61.1 µM; in assay [12] it was 56.6 µM; in [13], 75.1 µM. Besides, the total growth inhibition concentration (TGI) in [14] was determined as 48.4 µM; in [15] it was 63.2 µM; in assay [16] it was 99.4 µM.

`Cc1cccc2c(N)c3cccc(C(=O)NCC[N+](C)(C)Cc4c([N+](=O)[O-])ncn4C)c3nc12`: the total growth inhibition concentration (TGI) in assay [1] is over 100 µM; in assay [2], over 47.3 µM; in assay [3], over 40.4 µM; in assay [4] it was over 100 µM; in assay [5], over 100 µM; in assay [6] it was over 100 µM. The TGI in assay [7] was over 39.5 µM; in assay [8] it was over 100 µM; in assay [9] it was over 100 µM; in [10], over 100 µM; in assay [11], over 100 µM; in assay [12], over 100 µM. For the same molecule, the TGI was over 95.5 µM in [13], over 52.9 µM in assay [14], over 71.1 µM in assay [15] and over 100 µM in [16].

What is called GI50 is the concentration at which growth is held to half of that of the control. Turning to `CCNc1cc2c(cc1O)CC[C@@H]1[C@@H]2CC[C@]2(C)[C@@H](O)CC[C@@H]12`, the total growth inhibition concentration (TGI) in [1] came to 11.4 µM; in assay [2] it was 25 µM; in assay [3], 33.7 µM; in assay [4], 0.712 µM; in [5], 19 µM; in assay [6] it was 46.7 µM. Further, the TGI is 22 µM in assay [7]; over 55.3 µM in assay [8]; 34 µM in assay [9]; over 41.4 µM in assay [10]; 43.3 µM in [11]; 15 µM in [12]. The TGI in assay [13] is 24.1 µM; in assay [14], 11.8 µM; in [15], over 39 µM; in assay [16] it was 29.1 µM. Further, the GI50 in assay [4] is 0.0515 µM.

Consider `Cc1ccc(/C=C2\CCC/C(=C\c3ccc(O)c(CN4CCCCC4)c3)C2=O)cc1`, for which the concentration for total growth inhibition (TGI) in assay [1] was determined as 22.6 µM; in assay [2], 23.1 µM; in assay [3], 3.78 µM; in assay [4] it was 25.5 µM; in [5] it was 17.7 µM; in assay [6], 9.03 µM. Besides, the total growth inhibition concentration (TGI) in assay [7] was 18.6 µM; in assay [8], 60.2 µM; in assay [9] it was 37.9 µM; in assay [10] it was over 38.3 µM; in [11] it was 23.9 µM; in [12] it was 18.3 µM. Besides, the total growth inhibition concentration (TGI) came to 8.37 µM in [13], 17.9 µM in assay [14], 26.3 µM in assay [15] and 26.5 µM in assay [16].
